Reference: US9708314B2, “Heterocyclic amide compound” (NISSAN CHEMICAL INDUSTRIES, LTD., priority 2013, dated 2017)

What was measured:
Format in all cases: in vivo
[1] = test system: Echinochloa crus-galli var. crus-galli; test: Test Example 3: herbicidal effect by application to foliage (Wagner pot, water depth 0.1-0.5 cm); conditions: Nineteenth Table; application to foliage; application herbicide amount 320 g/ha
Procedure, shortened: (§1)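 Grading uses six bands of herbicidal ratio, from 0 (≤5%, almost no effect) to 5 (≥90%, almost completely withered). Treatment was a stem-and-leaf spray of diluted emulsion at a fixed g/ha on 14-day-old plants; evaluation after three weeks.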

Leptochloa chinensis = test: as above; conditions: Nineteenth Table; application to foliage; application herbicide amount 320 g/ha
Procedure, shortened: as §1

Abutilon theophrasti = test: Test Example 4: herbicidal effect by application to foliage (diluvial soil, plastic box); conditions: application to foliage, 320 g/ha
Procedure, shortened: (§2)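 Plants were grown in sterilized diluvial soil in a greenhouse at 25-30° C for 14 days, then sprayed on stems and leaves with water-diluted emulsion formulation at set rates in g/ha. Weed control and crop injury were scored 3 weeks after treatment on a 0-5 herbicidal-ratio scale, from 0 (≤5%) to 5 (≥90%).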

Alopecurus myosuroides = test: as above; conditions: application to foliage, 320 g/ha
Procedure, shortened: as §2

Amaranthus retroflexus = test: as above; conditions: application to foliage, 320 g/ha
Procedure, shortened: as §2

Apera spica-venti. = test: as above; conditions: application to foliage, 320 g/ha
Procedure, shortened: as §2

Avena fatua = test: as above; conditions: application to foliage, 320 g/ha
Procedure, shortened: as §2

Chenopodium album = test: as above; conditions: application to foliage, 320 g/ha
Procedure, shortened: as §2

Digitaria ciliaris = test: as above; conditions: application to foliage, 320 g/ha
Procedure, shortened: as §2

[2] = test system: Echinochloa crus-galli var. crus-galli; test: as above; conditions: application to foliage, 320 g/ha
Procedure, shortened: as §2

Galium spurium = test: as above; conditions: application to foliage, 320 g/ha
Procedure, shortened: as §2

Lolium multiflorum Lam. = test: as above; conditions: application to foliage, 320 g/ha
Procedure, shortened: as §2

Setaria viridis = test: as above; conditions: application to foliage, 320 g/ha
Procedure, shortened: as §2

Stellaria media = test: as above; conditions: application to foliage, 320 g/ha
Procedure, shortened: as §2

Veronica persica = test: as above; conditions: application to foliage, 320 g/ha
Procedure, shortened: as §2

[3] = test system: Beta vulgaris ssp. vulgaris; test: Test Example 4: effect on crop by application to foliage (diluvial soil, plastic box); conditions: application to foliage, 320 g/ha
Procedure, shortened: as §2

Brassica campestris L. = test: as above; conditions: application to foliage, 320 g/ha
Procedure, shortened: as §2

Glycine max = test: as above; conditions: application to foliage, 320 g/ha
Procedure, shortened: as §2

Triticum aestivum = test: as above; conditions: application to foliage, 320 g/ha
Procedure, shortened: as §2

Zea mays = test: as above; conditions: application to foliage, 320 g/ha
Procedure, shortened: as §2

[4] = test system: directly sowed Oryza sativa; test: as above; conditions: application to foliage, 320 g/ha
Procedure, shortened: as §2

Structure (SMILES) | H (herbicidal effect grade) [1] | D (herbicidal effect grade) (Leptochloa chinensis) | herbicidal effect, M (Abutilon theophrasti) (Abutilon theophrasti) | herbicidal effect, J (Alopecurus myosuroides) (Alopecurus myosuroides) | herbicidal effect, N (Amaranthus retroflexus) (Amaranthus retroflexus) | herbicidal effect, L (Apera spica-venti.) (Apera spica-venti.) | herbicidal effect, I (Avena fatua) (Avena fatua) | herbicidal effect, O (Chenopodium album) (Chenopodium album) | herbicidal effect, F (Digitaria ciliaris) (Digitaria ciliaris) | herbicidal effect, H (Echinochloa crus-galli var. crus-galli) [2] | herbicidal effect, Q (Galium spurium) (Galium spurium) | herbicidal effect, K (Lolium multiflorum Lam.) (Lolium multiflorum Lam.) | herbicidal effect, G (Setaria viridis) (Setaria viridis) | herbicidal effect, P (Stellaria media) (Stellaria media) | herbicidal effect, R (Veronica persica) (Veronica persica) | effect on crop, f (Beta vulgaris ssp. vulgaris) [3] | effect on crop, g (Brassica campestris L.) (Brassica campestris L.) | effect on crop, c (Glycine max) (Glycine max) | effect on crop, e (Triticum aestivum) (Triticum aestivum) | effect on crop, b (Zea mays) (Zea mays) | further results
CCSc1nnc2c(C(=O)Nc3nnnn3CCOC)ccc(C(F)(F)F)n12 [2-098] | 5 (Herbicidal ratio of 90% or more (almost completely withered)) | 5 (Herbicidal ratio of 90% or more (almost completely withered)) | 4 (Herbicidal ratio of 70% or more and less than 90%) | 2 (Herbicidal ratio of 20% or more and less than 40%) | 5 (Herbicidal ratio of 90% or more (almost completely withered)) | 4 (Herbicidal ratio of 70% or more and less than 90%) | 4 (Herbicidal ratio of 70% or more and less than 90%) | 5 (Herbicidal ratio of 90% or more (almost completely withered)) | 5 (Herbicidal ratio of 90% or more (almost completely withered)) | 5 (Herbicidal ratio of 90% or more (almost completely withered)) | 4 (Herbicidal ratio of 70% or more and less than 90%) | 3 (Herbicidal ratio of 40% or more and less than 70%) | 5 (Herbicidal ratio of 90% or more (almost completely withered)) | 5 (Herbicidal ratio of 90% or more (almost completely withered)) | 4 (Herbicidal ratio of 70% or more and less than 90%) | 5 (Herbicidal ratio of 90% or more (almost completely withered)) | 4 (Herbicidal ratio of 70% or more and less than 90%) | 1 (Herbicidal ratio of 5% or more and less than 20%) | 3 (Herbicidal ratio of 40% or more and less than 70%) | 4 (Herbicidal ratio of 70% or more and less than 90%) | effect on crop, d (directly sowed Oryza sativa) [4]: 4 (Herbicidal ratio of 70% or more and less than 90%)
CCSc1nnc2c(C(=O)Nc3ncnn3C)ccc(C(F)(F)F)n12 [4-003] | 4 (Herbicidal ratio of 70% or more and less than 90%) | 3 (Herbicidal ratio of 40% or more and less than 70%) | 4 (Herbicidal ratio of 70% or more and less than 90%) | 0 (Herbicidal ratio of 5% or less (almost no effect)) | 2 (Herbicidal ratio of 20% or more and less than 40%) | 1 (Herbicidal ratio of 5% or more and less than 20%) | 0 (Herbicidal ratio of 5% or less (almost no effect)) | 5 (Herbicidal ratio of 90% or more (almost completely withered)) | 2 (Herbicidal ratio of 20% or more and less than 40%) | 4 (Herbicidal ratio of 70% or more and less than 90%) | 1 (Herbicidal ratio of 5% or more and less than 20%) | 0 (Herbicidal ratio of 5% or less (almost no effect)) | 1 (Herbicidal ratio of 5% or more and less than 20%) | 4 (Herbicidal ratio of 70% or more and less than 90%) | 2 (Herbicidal ratio of 20% or more and less than 40%) | 4 (Herbicidal ratio of 70% or more and less than 90%) | 1 (Herbicidal ratio of 5% or more and less than 20%) | 0 (Herbicidal ratio of 5% or less (almost no effect)) | 0 (Herbicidal ratio of 5% or less (almost no effect)) | 0 (Herbicidal ratio of 5% or less (almost no effect)) | effect on crop, d (directly sowed Oryza sativa) [4]: 4 (Herbicidal ratio of 70% or more and less than 90%)
